Assays:
Format in all cases: in vivo
[1] = test system: goosegrass (Eleusine indica); experiment: Test B pre-/postemergence plant response; settings: Preemergence, 62 g ai/ha; scale 0 to 100, 0 no effect, 100 complete control
[2] = test system: umbrella sedge (Cyperus difformis); experiment: Test B flooded paddy test; settings: for Plant response rating, Flood, Sedge, Umbrella: 250 g ai/ha, flooded paddy test, visual rating on 0 to 100 scale (0 no effect, 100 complete control) after 13 to 15 days; for Plant response rating, Sedge, Umbrella: Flood (flooded paddy test), 13 to 15 days
Summary of the method: (§1)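 Visual scores run from 0 (no effect) to 100 (complete control), assigned by comparison with controls 13 to 15 days after treatment. Test compounds went straight into water standing 3 cm above the soil, around plants at the 2-leaf stage kept in a greenhouse.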

rice (Oryza sativa) = experiment: Test B flooded paddy test; settings: for Plant response rating, Flood, Rice: 250 g ai/ha, flooded paddy test, visual rating on 0 to 100 scale (0 no effect, 100 complete control) after 13 to 15 days; for Plant response rating, Rice: Flood (flooded paddy test), 13 to 15 days
Summary of the method: as §1

[3] = test system: barnyardgrass (Echinochloa crus-galli); experiment: Test B flooded paddy test; settings: for Plant response rating, Flood, Barnyardgrass: 250 g ai/ha, flooded paddy test, visual rating on 0 to 100 scale (0 no effect, 100 complete control) after 13 to 15 days; for Plant response rating, Barnyardgrass: Flood (flooded paddy test), 13 to 15 days
Summary of the method: as §1

[4] = test system: ducksalad (Heteranthera limosa); experiment: Test B flooded paddy test; settings: for Plant response rating, Flood, Ducksalad: 250 g ai/ha, flooded paddy test, visual rating on 0 to 100 scale (0 no effect, 100 complete control) after 13 to 15 days; for Plant response rating, Ducksalad: Flood (flooded paddy test), 13 to 15 days
Summary of the method: as §1

[5] = test system: nightshade (eastern black nightshade, Solanum ptycanthum); experiment: Test B pre-/postemergence plant response; settings: Preemergence; for Nightshade plant response rating: 125 g ai/ha
Summary of the method: (§2)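 Pre-em in loam/sand; post-em at 1–4 leaf (2–18 cm) in peat mix. Solvent + surfactant formulation. Greenhouse 13–15 d; visual % control vs untreated, 0–100.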

[6] = test system: Italian ryegrass (Lolium multiflorum); experiment: Test B pre-/postemergence plant response
Summary of the method: as §2

[7] = test system: ragweed (common ragweed, Ambrosia elatior); experiment: Test B pre-/postemergence plant response
Summary of the method: as §2

[8] = test system: sunflower (common oilseed sunflower, Helianthus annuus); experiment: Test B pre-/postemergence plant response; settings: Preemergence; for Sunflower plant response rating: 125 g ai/ha
Summary of the method: as §2

[9] = test system: galium (catchweed bedstraw, Galium aparine); experiment: Test B pre-/postemergence plant response; settings: Preemergence; for Galium plant response rating: 125 g ai/ha
Summary of the method: as §2

[10] = test system: giant foxtail (Setaria faberii); experiment: Test B pre-/postemergence plant response
Summary of the method: as §2

[11] = test system: windgrass (Apera spica-venti); experiment: Test B postemergence plant response; settings: Postemergence; for Plant response rating, Windgrass: scale 0 (no effect) to 100 (complete control)
Summary of the method: (§3)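 Plants grown in peat/vermiculite medium were sprayed postemergence at 2–18 cm height (1- to 4-leaf stage). After 13–15 days in the greenhouse, response was rated visually against untreated controls on a 0–100 scale (0 no effect, 100 complete control).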

[12] = test system: canarygrass (Phalaris minor); experiment: Test B postemergence plant response; settings: Postemergence; for Canarygrass plant response rating: 250 g ai/ha, scale 0 to 100
Summary of the method: as §3

[13] = test system: winter barley (Hordeum vulgare); experiment: Test B postemergence plant response; settings: Postemergence; for Barley plant response rating: 250 g ai/ha, scale 0 to 100
Summary of the method: as §3

[14] = test system: chickweed (Stellaria media); experiment: Test B postemergence plant response; settings: Postemergence; for Chickweed plant response rating: 250 g ai/ha, scale 0 to 100
Summary of the method: as §3

[15] = 31 g ai/ha, scale of 0 to 100 where 0 is no effect and 100 is complete control
[16] = 62 g ai/ha, scale 0 to 100, 0 is no effect, 100 is complete control
[17] = 125 g ai/ha, scale 0 to 100, 0 is no effect, 100 is complete control
[18] = 31 g ai/ha, scale 0 to 100 (0 no effect, 100 complete control)
[19] = 62 g ai/ha, scale 0 to 100, 0 no effect, 100 complete control
[20] = 250 g ai/ha, Preemergence, 0 to 100 scale
[21] = Postemergence, 62 g ai/ha, scale 0 (no effect) to 100 (complete control), 13 to 15 days
[22] = Postemergence, 125 g ai/ha, visual rating after 13 to 15 days, scale 0 (no effect) to 100 (complete control)
[23] = Preemergence, 31 g ai/ha, scale 0 to 100 (0 no effect, 100 complete control)
[24] = Preemergence, 62 g ai/ha, scale 0 to 100, 0 no effect, 100 complete control
[25] = Preemergence, 125 g ai/ha, 0 to 100 scale
[26] = Postemergence, 31 g ai/ha, scale 0 to 100 (0 no effect, 100 complete control)
[27] = Postemergence, 250 g ai/ha, scale 0 to 100
[28] = 125 g ai/ha, visual rating after 13 to 15 days
[29] = 62 g ai/ha, scale 0 (no effect) to 100 (complete control), 13 to 15 days
[30] = 125 g ai/ha, visual rating after 13 to 15 days, scale 0 (no effect) to 100 (complete control)
[31] = 62 g ai/ha, scale of 0 to 100 where 0 is no effect and 100 is complete control

O=C1CCCC(O)=C1C(=O)c1cnc(-c2cccc(Cl)c2)n(-c2ccccc2)c1=O [Compound 34]
0: Plant response rating, Sedge, Umbrella [2, 15] | Plant response rating, Sedge, Umbrella [2, 16] | Plant response rating, Sedge, Umbrella [2, 17] | Plant response rating, Flood, Rice (rice (Oryza sativa)) | Plant response rating, Rice (rice (Oryza sativa); [15]) | Plant response rating, Rice (rice (Oryza sativa); [16]) | Plant response rating, Rice (rice (Oryza sativa); [17]) | Plant response rating, Flood, Barnyardgrass [3] | Plant response rating, Barnyardgrass [3, 15] | Plant response rating, Barnyardgrass [3, 16] | Plant response rating, Barnyardgrass [3, 17] | Plant response rating, Ducksalad [4, 15] | Plant response rating, Ducksalad [4, 16] | Plant response rating, Ryegrass, Italian [6, 23] | Plant response rating, Ryegrass, Italian [6, 24] | Plant response rating, Barley [13, 18]
30: Plant response rating, Ducksalad [4, 17] | Plant response rating, Barley [13, 29] | Plant response rating, Barley [13, 30] | Barley plant response rating [13]
55: Plant response rating, Nightshade [5, 18] | Plant response rating, Sunflower [8, 18] | Plant response rating, Foxtail, Giant [10, 24]
100: Plant response rating, Goosegrass [1] | Plant response rating, Nightshade ([5]; 250 g ai/ha, 0 to 100 scale) | Nightshade plant response rating ([5]; 0 to 100 scale) | Plant response rating, Foxtail, Giant [10, 20] | Chickweed plant response rating [14]
20: Plant response rating, Ryegrass, Italian [6, 22]
75: Plant response rating, Ragweed [7, 23] | Plant response rating, Chickweed [14, 29]
40: Plant response rating, Flood, Sedge, Umbrella [2] | Plant response rating, Windgrass ([11]; 62 g ai/ha, 13 to 15 days)
10: Plant response rating, Ryegrass, Italian [6, 20] | Plant response rating, Ryegrass, Italian [6, 21] | Plant response rating, Galium [9, 18]
90: Plant response rating, Ragweed [7, 20] | Ragweed plant response rating [7, 25] | Plant response rating, Sunflower ([8]; 250 g ai/ha, 0 to 100 scale) | Galium plant response rating ([9]; 0 to 100 scale) | Plant response rating, Foxtail, Giant [10, 21] | Foxtail, Giant plant response rating [10, 25]
65: Plant response rating, Flood, Ducksalad [4]
15: Plant response rating, Foxtail, Giant [10, 23]
98: Plant response rating, Galium ([9]; 250 g ai/ha, 0 to 100 scale) | Plant response rating, Chickweed [14, 30]
50: Plant response rating, Galium [9, 19] | Plant response rating, Windgrass [11, 28] | Plant response rating, Canarygrass [12, 29] | Plant response rating, Canarygrass [12, 30] | Canarygrass plant response rating [12] | Plant response rating, Chickweed [14, 18]
70: Plant response rating, Sunflower [8, 19]
85: Plant response rating, Ragweed [7, 21] | Plant response rating, Foxtail, Giant [10, 26]
5: Ryegrass, Italian plant response rating [6, 25] | Plant response rating, Canarygrass [12, 18]
80: Plant response rating, Ragweed [7, 24] | Sunflower plant response rating ([8]; 0 to 100 scale)
95: Plant response rating, Nightshade [5, 19] | Plant response rating, Ragweed [7, 22] | Plant response rating, Foxtail, Giant [10, 22] | Foxtail, Giant plant response rating [10, 27]

Cc1ccc(C)c(-n2c(-c3ccccc3)ncc(C(=O)C3=C(O)CCCC3=O)c2=O)c1 [Compound 29]
100: Plant response rating, Goosegrass [1] | Plant response rating, Nightshade ([5]; 250 g ai/ha, 0 to 100 scale) | Nightshade plant response rating ([5]; 0 to 100 scale) | Plant response rating, Ragweed [7, 20] | Plant response rating, Ragweed [7, 22] | Ragweed plant response rating [7, 27] | Ragweed plant response rating [7, 25] | Plant response rating, Sunflower ([8]; 250 g ai/ha, 0 to 100 scale) | Plant response rating, Galium ([9]; 250 g ai/ha, 0 to 100 scale) | Plant response rating, Foxtail, Giant [10, 20] | Foxtail, Giant plant response rating [10, 25]
50: Plant response rating, Galium [9, 18] | Plant response rating, Foxtail, Giant [10, 24] | Windgrass plant response rating ([11]; 250 g ai/ha, scale 0 to 100) | Plant response rating, Chickweed [14, 18] | Plant response rating, Chickweed [14, 29] | Plant response rating, Chickweed [14, 30]
40: Plant response rating, Ryegrass, Italian [6, 20] | Plant response rating, Ryegrass, Italian [6, 22] | Plant response rating, Canarygrass [12, 30] | Canarygrass plant response rating [12]
90: Plant response rating, Nightshade [5, 18] | Plant response rating, Nightshade [5, 19] | Plant response rating, Ragweed [7, 24] | Sunflower plant response rating ([8]; 0 to 100 scale) | Plant response rating, Foxtail, Giant [10, 21] | Plant response rating, Foxtail, Giant [10, 22]
30: Plant response rating, Flood, Barnyardgrass [3] | Plant response rating, Windgrass [11, 28]
45: Ryegrass, Italian plant response rating [6, 27]
10: Ryegrass, Italian plant response rating [6, 25] | Plant response rating, Foxtail, Giant [10, 23] | Plant response rating, Windgrass ([11]; 62 g ai/ha, 13 to 15 days) | Plant response rating, Canarygrass [12, 18]
80: Plant response rating, Flood, Sedge, Umbrella [2] | Plant response rating, Ragweed [7, 23] | Plant response rating, Galium [9, 19] | Plant response rating, Foxtail, Giant [10, 26]
0: Plant response rating, Flood, Rice (rice (Oryza sativa)) | Plant response rating, Rice (rice (Oryza sativa); [16]) | Plant response rating, Barnyardgrass [3, 16] | Plant response rating, Ryegrass, Italian [6, 23] | Plant response rating, Ryegrass, Italian [6, 24] | Plant response rating, Barley [13, 18] | Plant response rating, Barley [13, 29] | Plant response rating, Barley [13, 30] | Barley plant response rating [13]
75: Plant response rating, Sunflower [8, 18]
70: Plant response rating, Sedge, Umbrella [2, 16] | Plant response rating, Ducksalad [4, 16]
20: Plant response rating, Ryegrass, Italian [6, 21] | Plant response rating, Canarygrass [12, 29]
85: Plant response rating, Flood, Ducksalad [4] | Plant response rating, Ragweed [7, 21] | Plant response rating, Sunflower [8, 19] | Chickweed plant response rating [14]
98: Galium plant response rating ([9]; 0 to 100 scale)
95: Foxtail, Giant plant response rating [10, 27]

Cc1cc(F)ccc1-n1c(-c2ccccc2)ncc(C(=O)C2=C(O)CCCC2=O)c1=O [Compound 48]
70: Plant response rating, Galium ([9]; 250 g ai/ha, 0 to 100 scale)
100: Plant response rating, Goosegrass [1] | Plant response rating, Nightshade ([5]; 250 g ai/ha, 0 to 100 scale) | Plant response rating, Nightshade [5, 18] | Plant response rating, Nightshade [5, 19] | Nightshade plant response rating ([5]; 0 to 100 scale) | Chickweed plant response rating [14]
30: Plant response rating, Ryegrass, Italian [6, 22] | Plant response rating, Canarygrass [12, 18] | Plant response rating, Canarygrass [12, 29]
80: Plant response rating, Sunflower ([8]; 250 g ai/ha, 0 to 100 scale) | Sunflower plant response rating ([8]; 0 to 100 scale) | Plant response rating, Windgrass ([11]; 62 g ai/ha, 13 to 15 days)
95: Plant response rating, Ragweed [7, 20] | Plant response rating, Foxtail, Giant [10, 22] | Plant response rating, Chickweed [14, 30]
5: Plant response rating, Ryegrass, Italian [6, 21] | Plant response rating, Barley [13, 18] | Plant response rating, Barley [13, 29]
90: Plant response rating, Ragweed [7, 22] | Ragweed plant response rating [7, 25] | Plant response rating, Windgrass [11, 28] | Plant response rating, Chickweed [14, 29]
35: Plant response rating, Flood, Barnyardgrass [3]
0: Plant response rating, Rice (rice (Oryza sativa); [31]) | Plant response rating, Barnyardgrass [3, 31] | Plant response rating, Ducksalad [4, 31] | Plant response rating, Ryegrass, Italian [6, 20] | Plant response rating, Ryegrass, Italian [6, 23] | Ryegrass, Italian plant response rating [6, 25] | Plant response rating, Sunflower [8, 18] | Plant response rating, Galium [9, 18]
65: Plant response rating, Flood, Rice (rice (Oryza sativa)) | Plant response rating, Ragweed [7, 23]
45: Plant response rating, Canarygrass [12, 30] | Canarygrass plant response rating [12]
20: Plant response rating, Foxtail, Giant [10, 23]
98: Plant response rating, Foxtail, Giant [10, 20] | Foxtail, Giant plant response rating [10, 27]
60: Plant response rating, Galium [9, 19] | Galium plant response rating ([9]; 0 to 100 scale)
75: Plant response rating, Flood, Sedge, Umbrella [2] | Plant response rating, Foxtail, Giant [10, 24]
85: Plant response rating, Flood, Ducksalad [4] | Plant response rating, Ragweed [7, 21] | Plant response rating, Foxtail, Giant [10, 26] | Plant response rating, Foxtail, Giant [10, 21] | Foxtail, Giant plant response rating [10, 25] | Plant response rating, Chickweed [14, 18]
40: Plant response rating, Sedge, Umbrella [2, 31]
10: Plant response rating, Barley [13, 30] | Barley plant response rating [13]
